Experimental data: EP2322194A2 (Reprise Biopharmaceutics, LLC, priority 2003, dated 2005)
Where “and” joins values, the source holds several entries; their conditions need not be identical. Identical values can stand only once. Like-named read-outs stand apart in the source and are kept apart here.

Tested on: over-hydrated, healthy, non-smoking male and female volunteers
Format: in vivo, human
Conditions: for Mean peak urine osmolality: at 2 hours; for Mean nadir urine output: end of 2 hour infusion; for Urine Output / Urine Osmolality: individual subjects
Description: Briefly, an open-label, crossover study with 8 healthy, over-hydrated, non-smoking male and female volunteers, age 18-40. The subjects were dosed initially with 0.5 ng/kg dose, then with the 1.0 ng/kg dose and finally the 2.0 ng/kg dose. Pharmacodynamic and pharmacokinetic parameters were evaluated at each dose level. A washout period of two days (48 hours) was observed between dosing. Eight subjects evaluated in this study, 5 males, and 3 females. […] Each subject remained in the clinic from one day prior to first dosing to one day after last dosing for a total of 7 days. […] At this point over-hydration was discontinued. […] Urine-specific gravity was also measured. […] This same procedure was followed for the 1.0 ng/kg and 2.0 ng/kg infusions. […] Criteria for evaluation in the study included urine output over time, urine osmolality over time, urine-specific gravity over time, and […] osmolality and sodium over time. Statistical analysis on the above criteria was performed. The statistical analysis is descriptive and all statistical hypothesis testing was done for exploratory purposes. […] The second and third estimation used 200 mOsm/kg and 400 mOsm/kg as cut off levels for 'onset' and 'end' of action, respectively. […] The overall duration of action was estimated for each dose group using the nonparametric Kaplan-Meier method. […] Furthermore, the duration of action was presented for each treatment group using the mean, SD, median, minimum and maximum values. The dose-response relationship between duration of action and dose was investigated using an appropriate linear or nonlinear model.

[1] = 0.5 ng/kg, time 0 min (baseline)
[2] = 0.5 ng/kg, time -20 min (baseline)
[3] = 1.0 ng/kg, time 0 min (baseline)
[4] = 1.0 ng/kg, time -20 min (baseline)
[5] = 2.0 ng/kg, time 0 min (baseline)
[6] = 2.0 ng/kg, time -20 min (baseline)

## 1-desamino-8-D-arginine vasopressin [desmopressin]
0.5 ng/kg dose
  duration of antidiuretic effect: approximately 180 minutes
  Mean peak urine osmolality: 206.0 mOsm/kg
  Baseline mean urine osmolality: 55.8 mOsm/kg
  Baseline mean urine output: 18.6 mL/min
  Mean nadir urine output: 7.1 mL/min
[1]
  Urine Osmolality, Mean: 57.6 mOsm/kg
  Urine Output, Mean: 18.4 mL/min
0.5 ng/kg, time 20 min
  Urine Osmolality, Mean: 73.1 mOsm/kg
  Urine Output: 16.7 mL/min (2×) and 16.4 mL/min and 11.8 mL/min
0.5 ng/kg, time 40 min
  Urine Osmolality, Mean: 108.3 mOsm/kg
  Urine Output, Mean: 10.3 mL/min
0.5 ng/kg, time 60 min
  Urine Osmolality, Mean: 136.1 mOsm/kg
  Urine Output, Mean: 9.6 mL/min
0.5 ng/kg, time 80 min
  Urine Osmolality, Mean: 165.8 mOsm/kg
0.5 ng/kg, time 100 min
  Urine Osmolality, Mean: 186.3 mOsm/kg
  Urine Output, Mean: 7.7 mL/min
0.5 ng/kg, time 120 min
  Urine Osmolality, Mean: 206.0 mOsm/kg
  Urine Output, Mean: 7.1 mL/min
0.5 ng/kg, time 140 min
  Urine Osmolality, Mean: 188.3 mOsm/kg
  Urine Output, Mean: 9.6 mL/min
0.5 ng/kg, time 160 min
  Urine Osmolality, Mean: 155.8 mOsm/kg
  Urine Output, Mean: 9.7 mL/min
0.5 ng/kg, time 180 min
  Urine Osmolality, Mean: 136.8 mOsm/kg
  Urine Output, Mean: 11.1 mL/min
0.5 ng/kg, time 200 min
  Urine Osmolality, Mean: 157.8 mOsm/kg
  Urine Output, Mean: 10.4 mL/min
0.5 ng/kg, time 220 min
  Urine Osmolality, Mean: 136.5 mOsm/kg
  Urine Output, Mean: 10.4 mL/min
0.5 ng/kg, time 240 min
  Urine Osmolality, Mean: 141.7 mOsm/kg
  Urine Output: 10.5 mL/min and 11.4 mL/min and 4.2 mL/min
0.5 ng/kg, time 260 min
  Urine Osmolality, Mean: 147.5 mOsm/kg
  Urine Output, Mean: 9.7 mL/min
  Urine Osmolality: 80 mOsm/kg and 215 mOsm/kg
0.5 ng/kg, time 280 min
  Urine Osmolality, Mean: 169.0 mOsm/kg
  Urine Osmolality: 88 mOsm/kg and 250 mOsm/kg
0.5 ng/kg, time 300 min
  Urine Osmolality, Mean: 193.0 mOsm/kg
  Urine Output, Mean: 4.1 mL/min
  Urine Osmolality: 193 mOsm/kg
  Urine Output: 4.1 mL/min
0.5 ng/kg, time 320 min
  Urine Osmolality, Mean: 156.0 mOsm/kg
  Urine Output, Mean: 5.0 mL/min
  Urine Osmolality: 156 mOsm/kg
  Urine Output: 5 mL/min
0.5 ng/kg, time 340 min
  Urine Osmolality, Mean: 133.0 mOsm/kg
  Urine Output, Mean: 6.4 mL/min
  Urine Osmolality: 133 mOsm/kg
  Urine Output: 6.4 mL/min
0.5 ng/kg, time 360 min
  Urine Osmolality, Mean: 120.0 mOsm/kg
  Urine Output, Mean: 7.3 mL/min
  Urine Osmolality: 120 mOsm/kg
  Urine Output: 7.3 mL/min
[2]
  Urine Osmolality, Mean: 55.8 mOsm/kg
  Urine Output, Mean: 18.6 mL/min
1.0 ng/kg dose
  Mean peak urine osmolality: 444.7 mOsm/kg
  Baseline mean urine osmolality: 55.8 mOsm/kg
  Baseline mean urine output: 16.6 mL/min
  Mean nadir urine output: 1.3 mL/min
[3]
  Urine Osmolality, Mean: 56.5 mOsm/kg
  Urine Output, Mean: 16.7 mL/min
  Urine Output: 17.4 mL/min
1.0 ng/kg, time 20 min
  Urine Osmolality, Mean: 67.1 mOsm/kg
  Urine Output: 11.2 mL/min and 10.4 mL/min
1.0 ng/kg, time 40 min
  Urine Osmolality, Mean: 167.0 mOsm/kg
  Urine Output, Mean: 7.0 mL/min
  Urine Output: 5.7 mL/min and 7.6 mL/min
1.0 ng/kg, time 60 min
  Urine Osmolality, Mean: 259.4 mOsm/kg
  Urine Output, Mean: 3.7 mL/min
  Urine Output: 3.5 mL/min
1.0 ng/kg, time 80 min
  Urine Osmolality, Mean: 322.8 mOsm/kg
  Urine Output, Mean: 2.0 mL/min
  Urine Output: 0 mL/min
1.0 ng/kg, time 100 min
  Urine Osmolality, Mean: 375.5 mOsm/kg
  Urine Output, Mean: 2.5 mL/min
  Urine Output: 3.7 mL/min
1.0 ng/kg, time 120 min
  Urine Osmolality, Mean: 444.7 mOsm/kg
  Urine Output, Mean: 1.3 mL/min
  Urine Output: 0 mL/min
1.0 ng/kg, time 140 min
  Urine Osmolality, Mean: 412.2 mOsm/kg
  Urine Output, Mean: 1.8 mL/min
  Urine Output: 0 mL/min
1.0 ng/kg, time 160 min
  Urine Osmolality, Mean: 261.7 mOsm/kg
  Urine Output, Mean: 3.2 mL/min
1.0 ng/kg, time 180 min
  Urine Osmolality, Mean: 280.9 mOsm/kg
  Urine Output, Mean: 5.0 mL/min
  Urine Output: 7.1 mL/min
1.0 ng/kg, time 200 min
  Urine Osmolality, Mean: 216.3 mOsm/kg
  Urine Output, Mean: 6.7 mL/min
  Urine Output: 4.3 mL/min
1.0 ng/kg, time 220 min
  Urine Osmolality, Mean: 121.4 mOsm/kg
  Urine Output, Mean: 7.3 mL/min
1.0 ng/kg, time 240 min
  Urine Osmolality, Mean: 181.6' mOsm/kg
  Urine Output: 5.5 mL/min
1.0 ng/kg, time 260 min
  Urine Osmolality, Mean: 181.8 mOsm/kg
  Urine Output, Mean: 6.6 mL/min
  Urine Output: 4.7 mL/min
1.0 ng/kg, time 280 min
  Urine Osmolality, Mean: 242.5 mOsm/kg
  Urine Output, Mean: 4.7 mL/min
  Urine Output: 0 mL/min
1.0 ng/kg, time 300 min
  Urine Osmolality, Mean: 202.0 mOsm/kg
  Urine Output: 11.5 mL/min
1.0 ng/kg, time 320 min
  Urine Osmolality, Mean: 164.8 mOsm/kg
  Urine Output: 6.7 mL/min
1.0 ng/kg, time 340 min
  Urine Osmolality, Mean: 155.5 mOsm/kg
  Urine Output, Mean: 10.6 mL/min
1.0 ng/kg, time 360 min
  Urine Osmolality, Mean: 156.3 mOsm/kg
  Urine Output, Mean: 10.4 mL/min
[4]
  Urine Osmolality, Mean: 55.8 mOsm/kg
  Urine Output, Mean: 16.6 mL/min
  Urine Output: 10.2 mL/min and 16.8 mL/min
2.0 ng/kg dose
  duration of antidiuretic effect: ~360 min
  Mean peak urine osmolality: 587.2 mOsm/kg
  Baseline mean urine osmolality: 55.6 mOsm/kg
  Baseline mean urine output: 16.9 mL/min
  Mean nadir urine output: 0.7 mL/min
[5]
  Urine Osmolality, Mean: 56.0 mOsm/kg
  Urine Output, Mean: 16.5 mL/min
2.0 ng/kg, time 20 min
  Urine Osmolality, Mean: 75.6 mOsm/kg
  Urine Output, Mean: 10.5 mL/min
2.0 ng/kg, time 40 min
  Urine Osmolality, Mean: 301.4 mOsm/kg
  Urine Output, Mean: 2.3 mL/min
2.0 ng/kg, time 60 min
  Urine Osmolality, Mean: 410.0 mOsm/kg
  Urine Output, Mean: 1.3 mL/min
2.0 ng/kg, time 80 min
  Urine Osmolality, Mean: 516.0 mOsm/kg
  Urine Output, Mean: 0.7 mL/min
2.0 ng/kg, time 100 min
  Urine Osmolality, Mean: 525.6 mOsm/kg
  Urine Output, Mean: 0.7 mL/min
2.0 ng/kg, time 120 min
  Urine Osmolality, Mean: 587.2 mOsm/kg
  Urine Output, Mean: 0.7 mL/min
2.0 ng/kg, time 140 min
  Urine Osmolality, Mean: 576.7 mOsm/kg
  Urine Output, Mean: 1.0 mL/min
2.0 ng/kg, time 160 min
  Urine Osmolality, Mean: 534.7 mOsm/kg
  Urine Output, Mean: 1.2 mL/min
2.0 ng/kg, time 180 min
  Urine Osmolality, Mean: 534.3 mOsm/kg
  Urine Output, Mean: 1.2 mL/min
2.0 ng/kg, time 200 min
  Urine Osmolality, Mean: 494.5 mOsm/kg
  Urine Output, Mean: 1.1 mL/min
2.0 ng/kg, time 220 min
  Urine Osmolality, Mean: 438.7 mOsm/kg
  Urine Output, Mean: 1.3 mL/min
2.0 ng/kg, time 240 min
  Urine Osmolality, Mean: 455.1 mOsm/kg
  Urine Output, Mean: 2.2 mL/min
2.0 ng/kg, time 260 min
  Urine Osmolality, Mean: 355.3 mOsm/kg
  Urine Output, Mean: 2.4 mL/min
2.0 ng/kg, time 280 min
  Urine Osmolality, Mean: 343.2 mOsm/kg
  Urine Output, Mean: 2.5 mL/min
2.0 ng/kg, time 300 min
  Urine Osmolality, Mean: 324.4 mOsm/kg
  Urine Output, Mean: 3.2 mL/min
2.0 ng/kg, time 320 min
  Urine Osmolality, Mean: 220.9 mOsm/kg
  Urine Output, Mean: 6.6 mL/min
2.0 ng/kg, time 340 min
  Urine Osmolality, Mean: 173.0 mOsm/kg
2.0 ng/kg, time 360 min
  Urine Osmolality, Mean: 143.8 mOsm/kg
  Urine Output, Mean: 9.3 mL/min
[6]
  Urine Osmolality, Mean: 55.6 mOsm/kg
  Urine Output, Mean: 16.9 mL/min
Low doses as i.v. infusions over 2 hours, dose response fashion
  antidiuretic effect: significant antidiuretic effects
